Laboratory results: PubChem BioAssay (NCI)
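Here, GI50 denotes the concentration required for 50% inhibition of growth. TGI denotes the concentration required for complete inhibition of growth.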

Assays:
Test in all cases: NCI anticancer screen, dose series, 384-well format
NCI-H522 lung = tested on: NCI-H522 lung
SNB-19 CNS = tested on: SNB-19 CNS
A498 renal = tested on: A498 renal
NCI-H460 NSCLC = tested on: NCI-H460 NSCLC
ACHN renal = tested on: ACHN renal
K-562 leukemia = tested on: K-562 leukemia
OVCAR-8 ovarian = tested on: OVCAR-8 ovarian
HCT-15 colon = tested on: HCT-15 colon
COLO 205 colon = tested on: COLO 205 colon
SF-268 CNS = tested on: SF-268 CNS
MDA-MB-231 breast = tested on: MDA-MB-231 breast
CAKI-1 renal = tested on: CAKI-1 renal
TK-10 renal = tested on: TK-10 renal
MCF7 breast = tested on: MCF7 breast
EKVX NSCLC = tested on: EKVX NSCLC
HCT-116 colon = tested on: HCT-116 colon
SK-MEL-2 melanoma = tested on: SK-MEL-2 melanoma
SF-295 CNS = tested on: SF-295 CNS
OVCAR-3 ovarian = tested on: OVCAR-3 ovarian
HL-60(TB) leukemia = tested on: HL-60(TB) leukemia
UO-31 renal = tested on: UO-31 renal
NCI-H322M lung = tested on: NCI-H322M lung
U251 glioblastoma = tested on: U251 glioblastoma
SW-620 colon = tested on: SW-620 colon
HT29 colon = tested on: HT29 colon
BT-549 breast = tested on: BT-549 breast
MOLT-4 leukemia = tested on: MOLT-4 leukemia
SK-OV-3 ovarian = tested on: SK-OV-3 ovarian
NCI/ADR-RES ovarian = tested on: NCI/ADR-RES ovarian
PC-3 prostate = tested on: PC-3 prostate
UACC-62 melanoma = tested on: UACC-62 melanoma
OVCAR-5 ovarian = tested on: OVCAR-5 ovarian
OVCAR-4 ovarian = tested on: OVCAR-4 ovarian
HCC-2998 colon = tested on: HCC-2998 colon
HOP-92 NSCLC = tested on: HOP-92 NSCLC
MDA-MB-435 melanoma = tested on: MDA-MB-435 melanoma
MDA-MB-468 breast = tested on: MDA-MB-468 breast
DU-145 prostate = tested on: DU-145 prostate
UACC-257 melanoma = tested on: UACC-257 melanoma
T-47D breast = tested on: T-47D breast
SK-MEL-28 melanoma = tested on: SK-MEL-28 melanoma
IGROV1 ovarian = tested on: IGROV1 ovarian
SN12C renal = tested on: SN12C renal
CCRF-CEM leukemia = tested on: CCRF-CEM leukemia
RPMI-8226 leukemia = tested on: RPMI-8226 leukemia
NCI-H23 lung = tested on: NCI-H23 lung
KM12 colon = tested on: KM12 colon
SNB-75 CNS = tested on: SNB-75 CNS
SF-539 CNS = tested on: SF-539 CNS
M14 melanoma = tested on: M14 melanoma
SR leukemia = tested on: SR leukemia
MALME-3M melanoma = tested on: MALME-3M melanoma
A549 NSCLC = tested on: A549 NSCLC
NCI-H226 lung = tested on: NCI-H226 lung
HOP-62 NSCLC = tested on: HOP-62 NSCLC
RXF 393 renal = tested on: RXF 393 renal
786-0 renal = tested on: 786-0 renal
SK-MEL-5 melanoma = tested on: SK-MEL-5 melanoma
LOX IMVI melanoma = tested on: LOX IMVI melanoma

For `COc1ccc(Cl)c(Nc2nc3ccccc3nc2NS(=O)(=O)c2cccc(NC(=O)C(C)(C)N)c2)c1`, the GI50 (NCI-H522 lung) was 9.12 µM, the TGI (NCI-H522 lung) was 21.6 µM and the GI50 (SNB-19 CNS) was 12.2 µM. The TGI (SNB-19 CNS) was 24.8 µM, the GI50 (A498 renal) was 6.64 µM and the TGI (A498 renal) was 19.5 µM. For the same compound, the GI50 (NCI-H460 NSCLC) was 5.5 µM, the TGI (NCI-H460 NSCLC) was 18.5 µM and the GI50 (ACHN renal) was 10.2 µM. For the same compound, the TGI (ACHN renal) was 23.3 µM, the GI50 (K-562 leukemia) was 13.6 µM and the TGI (K-562 leukemia) was 26.6 µM. The GI50 (OVCAR-8 ovarian) was 12.2 µM, the TGI (OVCAR-8 ovarian) was 24.9 µM and the GI50 (HCT-15 colon) was 12.3 µM. The TGI (HCT-15 colon) was 25 µM, the GI50 (COLO 205 colon) was 11.3 µM and the TGI (COLO 205 colon) was 23.5 µM. It also gave a GI50 (SF-268 CNS) of 10.9 µM, a TGI (SF-268 CNS) of 22.9 µM and a GI50 (MDA-MB-231 breast) of 14.3 µM. It also gave a TGI (MDA-MB-231 breast) of 27.5 µM, a GI50 (CAKI-1 renal) of 7.59 µM and a TGI (CAKI-1 renal) of 21.7 µM. For the same compound, the GI50 (TK-10 renal) was 5.77 µM, the TGI (TK-10 renal) was 19.5 µM and the GI50 (MCF7 breast) was 2.76 µM. For the same compound, the TGI (MCF7 breast) was 14.5 µM, the GI50 (EKVX NSCLC) was 4.81 µM and the TGI (EKVX NSCLC) was 19.5 µM. The GI50 (HCT-116 colon) was 14.7 µM, the TGI (HCT-116 colon) was 28 µM and the GI50 (SK-MEL-2 melanoma) was 11.7 µM. The TGI (SK-MEL-2 melanoma) was 24.6 µM, the GI50 (SF-295 CNS) was 5.29 µM and the TGI (SF-295 CNS) was 17.9 µM. For the same compound, the GI50 (OVCAR-3 ovarian) was 3.11 µM, the TGI (OVCAR-3 ovarian) was 15.5 µM and the GI50 (HL-60(TB) leukemia) was 2.69 µM. The TGI (HL-60(TB) leukemia) was 10.7 µM, the GI50 (UO-31 renal) was 2.73 µM and the TGI (UO-31 renal) was 13.3 µM. The GI50 (NCI-H322M lung) was 10.2 µM, the TGI (NCI-H322M lung) was 23.4 µM and the GI50 (U251 glioblastoma) was 11.8 µM. The TGI (U251 glioblastoma) was 24.3 µM, the GI50 (SW-620 colon) was 10.2 µM and the TGI (SW-620 colon) was 22.9 µM. For the same compound, the GI50 (HT29 colon) was 10.2 µM, the TGI (HT29 colon) was 21.9 µM and the GI50 (BT-549 breast) was 3.17 µM. For the same compound, the TGI (BT-549 breast) was 14.1 µM, the GI50 (MOLT-4 leukemia) was 2.37 µM and the TGI (MOLT-4 leukemia) was 7.66 µM. The GI50 (SK-OV-3 ovarian) was 5.4 µM, the TGI (SK-OV-3 ovarian) was 19.3 µM and the GI50 (NCI/ADR-RES ovarian) was 11 µM. The TGI (NCI/ADR-RES ovarian) was 23.2 µM, the GI50 (PC-3 prostate) was 4.02 µM and the TGI (PC-3 prostate) was 16.3 µM. The GI50 (UACC-62 melanoma) was 6.72 µM, the TGI (UACC-62 melanoma) was 19.6 µM and the GI50 (OVCAR-5 ovarian) was 9.79 µM. The TGI (OVCAR-5 ovarian) was 22.3 µM, the GI50 (OVCAR-4 ovarian) was 10.2 µM and the TGI (OVCAR-4 ovarian) was 24.4 µM. It also gave a GI50 (HCC-2998 colon) of 8.3 µM, a TGI (HCC-2998 colon) of 22.6 µM and a GI50 (HOP-92 NSCLC) of 0.977 µM. It also gave a TGI (HOP-92 NSCLC) of 5.87 µM, a GI50 (MDA-MB-435 melanoma) of 12.5 µM and a TGI (MDA-MB-435 melanoma) of 25.1 µM. For the same compound, the GI50 (MDA-MB-468 breast) was 1.84 µM, the TGI (MDA-MB-468 breast) was 10.1 µM and the GI50 (DU-145 prostate) was 11.4 µM. It also gave a TGI (DU-145 prostate) of 24.4 µM, a GI50 (UACC-257 melanoma) of 11.6 µM and a TGI (UACC-257 melanoma) of 24.2 µM. It also gave a GI50 (T-47D breast) of 1.57 µM, a TGI (T-47D breast) of 7.84 µM and a GI50 (SK-MEL-28 melanoma) of 3.91 µM. For the same compound, the TGI (SK-MEL-28 melanoma) was 16.7 µM, the GI50 (IGROV1 ovarian) was 1.38 µM and the TGI (IGROV1 ovarian) was 3.79 µM. For the same compound, the GI50 (SN12C renal) was 8.86 µM, the TGI (SN12C renal) was 21.3 µM and the GI50 (CCRF-CEM leukemia) was 12 µM. The TGI (CCRF-CEM leukemia) was 24.4 µM, the GI50 (RPMI-8226 leukemia) was 3.2 µM and the TGI (RPMI-8226 leukemia) was 11.4 µM. The GI50 (NCI-H23 lung) was 4.73 µM, the TGI (NCI-H23 lung) was 20.1 µM and the GI50 (KM12 colon) was 13.7 µM. It also gave a TGI (KM12 colon) of 26.7 µM, a GI50 (SNB-75 CNS) of 2.43 µM and a TGI (SNB-75 CNS) of 10.1 µM. The GI50 (SF-539 CNS) was 8.54 µM, the TGI (SF-539 CNS) was 21.1 µM and the GI50 (M14 melanoma) was 12.5 µM. The TGI (M14 melanoma) was 25.1 µM, the GI50 (SR leukemia) was 8.2 µM and the TGI (SR leukemia) was 21.6 µM. It also gave a GI50 (MALME-3M melanoma) of 9.58 µM, a TGI (MALME-3M melanoma) of 21.6 µM and a GI50 (A549 NSCLC) of 10.5 µM. The TGI (A549 NSCLC) was 22.4 µM, the GI50 (NCI-H226 lung) was 10.9 µM and the TGI (NCI-H226 lung) was 22.9 µM. For the same compound, the GI50 (HOP-62 NSCLC) was 13.6 µM, the TGI (HOP-62 NSCLC) was 26.6 µM and the GI50 (RXF 393 renal) was 2.38 µM. The TGI (RXF 393 renal) was 8.35 µM, the GI50 ([…]-0 renal) was 9.77 µM and the TGI (786-0 renal) was 22.6 µM. For the same compound, the GI50 (SK-MEL-5 melanoma) was 12.8 µM, the TGI (SK-MEL-5 melanoma) was 25.5 µM and the GI50 (LOX IMVI melanoma) was 12.8 µM. For the same compound, the TGI (LOX IMVI melanoma) was 25.4 µM.
